Experiments:
[1] = test system: rats receiving Paraquat into Substantia Nigra; assay type: in vivo, rat
From the text: The Paraquat/rat/PS experimental model was therefore selected as the most indicative for checking the efficacy of chemical compounds according to the present invention; of these, two anti-oxidants designated MP1002 and MP1001 were used in the tests:
Male Sprague Dawley rats (210-220 g weight) were kept on a standard laboratory diet supplemented with “Nossan Pellets” (both the animals and the pellets are available from Nossan Company, Milan, Italy) and were housed for three weeks (relative humidity 50%±10%, temperature 22° C.±1 and in a light/darkness cycle of 12 hours/12 hours, with first light at 7.30 a.m.) prior to the tests; food and water were available ad libitum.
Prior to treatment, the rats were anaesthetized by intraperitoneal injection of 380 mg/kg weight of chloral hydrate; a stainless steel guide cannula (size 25) was implanted unilaterally in the Substantia Nigra with stereotaxic guiding and was secured to the cranium with dental acrylic material.
The animals (20 per test group) were allowed a recovery period of seven days prior to treatment; during this period no change in motor activity or posture was observed. Microinfusions were performed by means of a 10 μl Hamilton syringe connected to an injection cannula by means of a Teflon tube. The compounds or the vehicle (0.8% NaCl) were injected at a total volume of 1 μl/minute.
Microinfusion of 50 μg of Paraquat into the Substantia Nigra (n=20 rats) led to an increase in motor activity with the animals performing jumps and moving in circles in a contralateral direction relative to the injection position, about 24 minutes later; all of the animals were dead 24±2.5 hours after infusion. A further twenty animals were infused with Paraquat and twenty with Paraquat plus vehicle; about ten of the animals for each group survived 20 hours after treatment and were used to determine the development of lipid peroxidation in the Substantia Nigra.

[2] = test system: lipid peroxidation in the Substantia Nigra; assay type: in vivo; details: Substantia Nigra, 20 hours after Paraquat alone, 50 μg microinfusion
Procedure: Microinfusion of 50 μg of Paraquat into the Substantia Nigra (n=20 rats) led to an increase in motor activity with the animals performing jumps and moving in circles in a contralateral direction relative to the injection position, about 24 minutes later; all of the animals were dead 24±2.5 hours after infusion. […]
[…]. Enzymol. 52, 302-310, 1978.

[3] = 50 μg Paraquat into the Substantia Nigra, n=20 rats
[4] = Paraquat alone, 50 μg microinfusion into Substantia Nigra

For `C[n+]1ccc(-c2cc[n+](C)cc2)cc1` [Paraquat, reference compound], which “time after infusion at which all of the animals were dead” value [1, 3] is on record?
Its value is 24 ± 2.5 h.

And the “time to increase in motor activity (jumps, contralateral circling) after microinfusion” value [1, 3]?
Its value is “about 24 minutes”.

What about the “Duration (seizures)” value [1, 4] of the same compound?
Its value is 270 ± 15 min.

And the “Latency (seizures)” value [1, 4]?
Its value is 25 ± 4 min.

What about the Mortality [1, 4] of the same compound?
The Mortality was 100 (20/20) %.

And the “Lipid Peroxidation” value [2]?
The value was 14.6 ± 1.34 nmol MDA × h^−1 × mg prot^−1.

From patent US8461186B2, “Use of N-piperidine derivatives for the treatment of neurodegenerative pathologies” (Medestea Research & Production S.p.A., priority 2004, dated 2013)
